Earlier results, collected in patent US20180085319A1, “METHODS AND COMPOSITIONS FOR TREATING CANCER” (priority 2016, published 2018).

System: anti-immunotoxin immune response

| Substance | effect on immune response to SS1P in mesothelioma patients (immunosuppressive treatment given with SS1P) | prevention of anti-immunotoxin immune response in patients (B cell depletion) |
| --- | --- | --- |
| cyclophosphamide and pentostatin [cyclophosphamide and pentostatin (CP/PS)] | only delayed the response to the immunotoxin | – |
| Rituximab | – | ineffective in preventing anti-immunotoxin immune response |
